Data published in patent publication US12692288B2, “Crystalline and liquid crystalline 25-hydroxy-cholest-5-en-3-sulfate sodium and methods for preparing same” (Medicis Pharmaceutical Corporation, priority 2019, dated 2026).

Experiments:
Type in all cases: physicochemical
[1] = Variable humidity XRPD (VH-XRPD); conditions: for time to complete dehydration/conversion to Form XIII: exposure to 0% RH
Source text: (§1) X-ray powder diffraction patterns were collected with a PANalytical X'Pert PRO MPD diffractometer using an incident beam of Cu Kα radiation produced using a long, fine-focus source and a nickel filter. The diffractometer was configured using the symmetric Bragg—Brentano geometry. Data were collected and analyzed using Data Collector software v. 2.2b. […] A specimen of the sample was packed in a nickel-coated copper well. Antiscatter slits were used to minimize the background generated by air. Soller slits for the incident and diffracted beams were used to minimize broadening from axial divergence. Diffraction patterns were collected using a scanning position-sensitive detector (X'Celerator) located 240 mm from the sample and Data Collector software v. 2.2b.
An Anton Paar temperature-humidity chamber (THC) was used to collect in-situ x-ray powder diffraction patterns as a function of humidity. The temperature of the specimen was controlled with a Peltier thermoelectric device located directly under the specimen holder and monitored with a platinum-100 resistance sensor located in the specimen holder. The thermoelectric device was powered and controlled by an Anton Paar TCU 50 interfaced with Data Collector software.
The humidity was generated with an RH-200 manufactured by VTI Inc. and carried by a flow of nitrogen gas. The humidity and temperature were monitored by a Rotronic HygroClip sensor located next to the specimen inside the THC.

[2] = Physical stability of forms on exposure to humidity, temperature or vacuum, by XRPD
Source text: X-ray powder diffraction patterns were collected with a PANalytical X'Pert PRO MPD or PANalytical Empyrean diffractometer using an incident beam of Cu radiation produced using a long, fine-focus source. An elliptically graded multilayer mirror was used to focus Cu Kα x-rays through the specimen and onto the detector. […] A specimen of the sample was sandwiched between 3-μm-thick films and analyzed in transmission geometry. A beam-stop, short anti-scatter extension, and anti-scatter knife edge were used to minimize the background generated by air. Soller slits for the incident and diffracted beams were used to minimize broadening and asymmetry from axial divergence. Diffraction patterns were collected using a scanning position-sensitive detector (X'Celerator) located 240 mm from the specimen and Data Collector software v. 2.2b or 5.5. All images were produced with the instrument labeled as X'Pert PRO MPD regardless of the instrument used.
as §1, with “geometry.” for “geometry. Data were collected and analyzed using Data Collector software v. 2.2b.”, “a” for “a nickel-coated copper”, “Anti-scatter” for “Antiscatter”

[3] = Dynamic Vapor Sorption test (SMS DVS Intrinsic), Example 23; conditions: 25° C.
Protocol: Dynamic Vapor Sorption (DVS) was measured using an SMS (Surface Measurement Systems) DVS Intrinsic. [table]

[4] = Dynamic vapor sorption/desorption (DVS), VTI SGA-100; conditions: for form of material recovered after DVS, by XRPD: after sorption/desorption 5% to 95% RH
Protocol: Moisture sorption/desorption data were collected on a VTI SGA-100 Vapor Sorption Analyzer. NaCl and PVP were used as calibration standards. Samples were not dried prior to analysis. […] The equilibrium criterion used for analysis was less than 0.0100% weight change in 5 minutes with a maximum equilibration time of 3 hours. Data were not corrected for the initial moisture content of the samples.

[5] = Water activity slurries in aqueous solvent mixtures, solid phase by XRPD
Source text: The effect of water activity (aw) on the hydration state can be investigated through competitive water activity trituration experiments (slurries) in various aqueous solvent mixtures. The resulting solid phase can be characterized by x-ray powder diffraction. The experiments can establish the physically stable form at various aw. Water activity can also be related to relative humidity in that RH %=aw×100. Therefore, it is possible to directly relate the stability of an anhydrous/hydrate system in slurry experiments to solid-state stability. The slurry technique at controlled water activities can provide an accurate method of rapidly predicting the physically stable form in anhydrous/hydrate systems. […] The times, temperatures, and humidity are approximate. As with Table 1, the term “B” means birefringent when viewed by polarized light microscopy with cross polars.
Solutions were prepared by adding enough solids to a given solvent so that excess solids were present. The mixture was then agitated in a sealed vial at either ambient or elevated temperature. After a given amount of time, the solids were isolated for analysis.

[6] = Variable temperature XRPD (VT-XRPD)
Source text: as §1, with “air scattering.” for “air.”, “sample.” for “sample and Data Collector software v. 2.2b.”
An Anton Paar TTK 450 stage was used to collect in-situ x-ray powder diffraction patterns as a function of temperature. The sample was heated with a resistance heater located directly under the sample holder, and the temperature was monitored with a platinum-100 resistance sensor located in the specimen holder. The heater was powered and controlled by an Anton Paar TCU 100 interfaced with Data Collector software.

[7] = from 5 to 25% RH, screening material, mixture of Form I and Form II
[8] = from 25 to 85% RH, screening material, mixture of Form I and Form II

## C[C@H](CCCC(C)(C)O)[C@H]1CC[C@H]2[C@@H]3CC=C4C[C@@H](OS(=O)(=O)[O-])CC[C@]4(C)[C@H]3CC[C@]12C.[Na+] [Form XIII, 25HC3S sodium]
[1]; increasing humidity
  relative humidity before which Form XIII hydrates to Form I: < 25 % RH
[2]
  form change at ambient conditions: quickly hydrates to Form I

## C[C@H](CCCC(C)(C)O)[C@H]1CCC2C3CC=C4C[C@@H](OS(=O)(=O)[O-])CC[C@]4(C)C3CC[C@@]21C.[Na+] (stereo partly drawn) [25HC3S sodium, Sodium [(3S,10R,13R,17R)-17-[(1R)-5-hydroxy-1,5-dimethyl-hexyl]-10,13-dimethyl-2,3,4,7,8,9,11,12,14,15,16,17-dodecahydro-1H-cyclopenta[a]phenanthren-3-yl] sulfate]
[3]
  hygroscopicity (DVS test): hygroscopic
[3]; below 30% RH
  moisture reversibly absorbed: 7.0%
[3]; by 95% RH
  water absorbed: 8.5%
[4]
  form of material recovered after DVS, by XRPD: predominantly Form I with an additional peak near 8.8°
[4]; [7]
  water corresponding to weight gain (DVS): 1.5 mol/mol water
  weight gain (DVS): approximately 5 wt %
[4]; [8]
  water corresponding to weight gain (DVS): 1.8 mol/mol water
  weight gain (DVS): ~6 wt %
[4]; from 85 to 95% RH
  weight gain (DVS): ~6 wt %
[4]; screening material, mixture of Form I and Form II
  hygroscopicity (DVS isotherm): hygroscopic
[2]; 75% RH for 10 days, screening material, mixture of Form I and Form II
  form after humidity exposure, by XRPD: predominately Form I and two additional peaks near 4.4°2θ and 8.8°2θ
[2]; briefly exposed to 130° C., screening material, mixture of Form I and Form II
  form after heat exposure, by XRPD: mixture of Forms I, II, and XIII
[5]; 0.73 aw, 94:06 ACN/H2O, 8 days, approximately room temperature
  Result (form) of water activity slurry: I +
[5]; combination of samples from 0.5 aw and 0.38 aw, 56 days, filtered and dried under N2 for 30 min.
  Result (form) of water activity slurry: I +

## C[C@H](CCCC(C)(C)O)[C@H]1CC[C@H]2[C@@H]3CC=C4C[C@@H](OS(=O)(=O)[O-])CC[C@]4(C)[C@H]3CC[C@]12C.[Na+] [Form I, 25HC3S sodium]
[6]
  temperature by which decomposition product trisodium hydrogen disulfate, Na3H(SO4)2, was evident: ≤ 170 °C
[6]; heating to 170° C. and then dropping to 135° C.
  form shown after dehydration by heating: Form XIII
[1]; 0% RH
  behaviour upon exposure to 0% RH: dehydrate within minutes to Form XIII
[1]
  time to complete dehydration/conversion to Form XIII: 20 min
[2]
  hygroscopicity: hygroscopic
[2]; exposure to either 0% RH or 70° C. under vacuum
  form change on drying: dehydrated Form I to Form XIII
[5]
  water activity above which Form I is believed to form liquid crystal Form V: above 0.73 aw

## C[C@H](CCCC(C)(C)O)[C@H]1CC[C@H]2[C@@H]3CC=C4C[C@@H](OS(=O)(=O)[O-])CC[C@]4(C)[C@H]3CC[C@]12C.[Na+] [Forms I+XIII, 25HC3S sodium]
[1]
  time to complete dehydration/conversion to Form XIII: ≤ 20 min
[1]; isolated at 15% RH, exposed to 25% RH, held minimum one hour
  form change on exposure to humidity: converted to Form I

## C[C@H](CCCC(C)(C)O)[C@H]1CC[C@H]2[C@@H]3CC=C4C[C@@H](OS(=O)(=O)[O-])CC[C@]4(C)[C@H]3CC[C@]12C.[Na+] [Form III, 25HC3S sodium]
[2]; 58° C. and vacuum overnight, or 130° C.
  form change on heating: desolvates to another anhydrous form, Form IX
[2]
  form change at ambient conditions: desolvates to Form II

## C[C@H](CCCC(C)(C)O)[C@H]1CC[C@H]2[C@@H]3CC=C4C[C@@H](OS(=O)(=O)[O-])CC[C@]4(C)[C@H]3CC[C@]12C.[Na+] [Form II, 25HC3S sodium]
[6]; 135° C.
  form observed by XRPD at elevated temperature: still observed
[1]; ambient temperature, 0% to 85% RH
  form change in variable humidity XRPD: a form change did not occur
[4]; DVS sorption isotherm at 85% RH (FIG. 16)
  water accommodated in fully hydrated state: approximately 3 mol/mol of water
[4]
  form of material recovered after DVS, by XRPD: mixture of Form II and Form V
[4]; from 5 to 55% RH
  water corresponding to weight gain (DVS): 1 mol/mol water
  weight gain (DVS): approximately 3.5 wt %
[4]; from 55 to 85% RH
  water corresponding to weight gain (DVS): 2 mol/mol water
  weight gain (DVS): ~7 wt %
[4]; from 85 to 95% RH
  weight gain (DVS): ~7 wt %
[2]
  relative humidity of exposure at which the form converts to Form V: ≥ 75 % RH
[2]; exposure to 75% RH
  time to conversion to Form V: up to 35 days
[2]; stored at 0% RH for up to 35 days
  form stability by XRPD: remained unchanged
[2]; under dry nitrogen for up to 4 days
  form stability by XRPD: remained unchanged

## C[C@H](CCCC(C)(C)O)[C@H]1CC[C@H]2[C@@H]3CC=C4C[C@@H](OS(=O)(=O)[O-])CC[C@]4(C)[C@H]3CC[C@]12C.[Na+] [Form V, 25HC3S sodium]
[2]; exposure to 55° C. and vacuum for 1 day
  physical stability by XRPD: remained Form V
[2]; storage at ambient conditions for 25 days
  physical stability by XRPD: no changes observed
[5]
  water activity of aqueous solvent mixture slurries from which the form resulted: above 0.73 aw
